According to PubChem BioAssay AID330 (DTP/NCI, 2004):
Where “and” joins values, the source holds several entries; their conditions need not be identical. Equal values may be shown once. Inconclusive results and toxic doses are left out.

Tested on: P388 leukemia ip, CD2F1 mice, survival T/C
Assay: NCI In Vivo Anticancer Drug Screen. Data for tumor model P388 Leukemia (intraperitoneal) in CD2F1 (CDF1) mice
Conditions: endpoint: median survival time, higher = longer survival
Outline: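 Mice carrying the transplanted tumor received test compound or vehicle. Survival was recorded in each group, and the value is the treated-group measurement divided by that of the vehicle-treated control group.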

[1] = dose: 200.0 mg/kg/injection, schedule: Q04DX003 (ip), vehicle: saline with Tween-80
[2] = dose: 25.0 mg/kg/injection, schedule: Q04DX003 (ip), vehicle: saline with Tween-80
[3] = dose: 50.0 mg/kg/injection, schedule: Q04DX003 (ip), vehicle: saline with Tween-80
[4] = dose: 100.0 mg/kg/injection, schedule: Q04DX002 (ip), vehicle: saline with Tween-80
[5] = dose: 200.0 mg/kg/injection, schedule: Q04DX002 (ip), vehicle: saline with Tween-80
[6] = dose: 100.0 mg/kg/injection, schedule: Q04DX003 (ip), vehicle: saline with Tween-80
[7] = dose: 400.0 mg/kg/injection, schedule: Q04DX003 (ip), vehicle: saline with Tween-80
[8] = dose: 50.0 mg/kg/injection, schedule: Q01DX005 (ip), vehicle: saline with Tween-80
[9] = dose: 100.0 mg/kg/injection, schedule: Q01DX005 (ip), vehicle: saline with Tween-80
[10] = dose: 200.0 mg/kg/injection, schedule: Q01DX005 (ip), vehicle: saline with Tween-80
[11] = dose: 60.0 mg/kg/injection, schedule: Q01DX005 (ip), vehicle: saline with Tween-80
[12] = dose: 120.0 mg/kg/injection, schedule: Q01DX005 (ip), vehicle: saline with Tween-80
[13] = dose: 240.0 mg/kg/injection, schedule: Q01DX005 (ip), vehicle: saline with Tween-80

`Cc1ccc(S(=O)(=O)N(C)c2cc(Cl)c(C(=O)O)c(Cl)c2)cc1` was tested, and the T/C (dose: 88.0 mg/kg/injection, schedule: Q04DX003 (ip), vehicle: saline with Tween-80) was 99 % of control, the T/C (dose: 133.0 mg/kg/injection, schedule: Q04DX003 (ip), vehicle: saline with Tween-80) was 100 % of control and the T/C [1] was 99 % of control. For the same molecule, the T/C (dose: 300.0 mg/kg/injection, schedule: Q04DX003 (ip), vehicle: saline with Tween-80) was 100 % of control.

For `CN1CCC/C1=N\S(=O)(=O)/N=C1\CCCN1C`, the T/C (dose: 50.0 mg/kg/injection, schedule: Q01DX005 (ip), vehicle: saline) was 92 % of control, the T/C (dose: 100.0 mg/kg/injection, schedule: Q01DX005 (ip), vehicle: saline) was 100 % of control and the T/C (dose: 200.0 mg/kg/injection, schedule: Q01DX005 (ip), vehicle: saline) was 99 % of control.

In the case of `COc1ccc(NC(=S)Nc2ccc(OCCCN3CCOCC3)cc2)cc1`, the T/C (dose: 100.0 mg/kg/injection, schedule: Q04DX002 (ip), vehicle: Klucel (hydroxypropylcellulose) (HPC)) is reported as 96 % of control, the T/C (dose: 200.0 mg/kg/injection, schedule: Q04DX002 (ip), vehicle: Klucel (hydroxypropylcellulose) (HPC)) is reported as 94 % of control and the T/C (dose: 400.0 mg/kg/injection, schedule: Q04DX002 (ip), vehicle: Klucel (hydroxypropylcellulose) (HPC)) is reported as 94 % of control.

In the case of `Cc1cc(N(CCCl)CCCl)c(C)cc1NC(=O)c1ccccc1`, the T/C (dose: 16.5 mg/kg/injection, schedule: Q04DX003 (ip), vehicle: saline with Tween-80) is reported as 159 % of control, the T/C [2] is reported as 177 % of control and the T/C (dose: 37.5 mg/kg/injection, schedule: Q04DX003 (ip), vehicle: saline with Tween-80) is reported as 90 % of control. The T/C [3] was 90 % of control.

`C=CC1O[C@H](C)C[C@H](C)O1` (some centres not stated) was tested, and the T/C (dose: 60.0 mg/kg/injection, schedule: Q01DX005 (ip), vehicle: saline) was 109 % of control, the T/C (dose: 120.0 mg/kg/injection, schedule: Q01DX005 (ip), vehicle: saline) was 100 % of control and the T/C (dose: 240.0 mg/kg/injection, schedule: Q01DX005 (ip), vehicle: saline) was 104 % of control.

`CC1(Br)CN([C@@H](C(=O)O)c2ccccc2)C1=O` (some centres not stated) was tested, and the T/C (dose: 50.0 mg/kg/injection, schedule: Q04DX002 (ip), vehicle: saline with Tween-80) was 102 % of control, the T/C [4] was 96 % of control and the T/C [5] was 93 % of control. For the same molecule, the T/C (dose: 400.0 mg/kg/injection, schedule: Q04DX002 (ip), vehicle: saline with Tween-80) was 102 % of control.

In the case of `CCc1c(C)c(SC)n(C)c(=O)c1C#N`, the T/C (dose: 25.0 mg/kg/injection, schedule: Q01DX009 (ip), vehicle: Klucel (hydroxypropylcellulose) (HPC)) is reported as 99 % of control, the T/C (dose: 50.0 mg/kg/injection, schedule: Q01DX009 (ip), vehicle: Klucel (hydroxypropylcellulose) (HPC)) is reported as 100 % of control and the T/C (dose: 100.0 mg/kg/injection, schedule: Q01DX009 (ip), vehicle: Klucel (hydroxypropylcellulose) (HPC)) is reported as 97 % of control. The T/C (dose: 200.0 mg/kg/injection, schedule: Q01DX009 (ip), vehicle: Klucel (hydroxypropylcellulose) (HPC)) was 91 % of control.

For `S=P(NCCS)(N1CC1)N1CC1`, the T/C [6] was 109 % of control, the T/C [1] was 122 % of control and the T/C [7] was 91 % of control.

`COCCCN1CC(=O)N2Cc3ccccc3CN2C(=O)C1` was tested, and the T/C [8] was 98 % of control, the T/C [9] was 98 % of control and the T/C [10] was 103 % of control.

In the case of `O=C(CC(c1ccncc1)C(C(=O)c1ccc(Cl)cc1)C(c1ccncc1)C(C(=O)c1ccc(Cl)cc1)C(O)c1ccncc1)c1ccc(Cl)cc1` (configuration not stated), the T/C [8] is reported as 101 % of control, the T/C [9] is reported as 93 % of control and the T/C [10] is reported as 93 % of control.

`CC(=O)OC1CC(/C=C/C(=O)OC2=C(O)CCC2=O)=CN1` (configuration not stated) was tested, and the T/C (dose: 4.37 mg/kg/injection, schedule: Q01DX001 (ip), vehicle: Klucel (hydroxypropylcellulose) (HPC)) was 100 % of control, the T/C (dose: 8.75 mg/kg/injection, schedule: Q01DX001 (ip), vehicle: Klucel (hydroxypropylcellulose) (HPC)) was 99 % of control and the T/C (dose: 17.5 mg/kg/injection, schedule: Q01DX001 (ip), vehicle: Klucel (hydroxypropylcellulose) (HPC)) was 102 % of control. The T/C (dose: 35.0 mg/kg/injection, schedule: Q01DX001 (ip), vehicle: Klucel (hydroxypropylcellulose) (HPC)) was 105 % of control.

With `O=C(O)CS(=O)NN(c1ccccc1)c1ccccc1` (configuration not stated) the T/C [4] was 102 % of control and the T/C [5] was 102 % of control.

With `CCCC1(c2ccccc2)C(=O)NCNC1=O` the T/C (dose: 20.0 mg/kg/injection, schedule: Q01DX005 (ip), vehicle: Klucel (hydroxypropylcellulose) (HPC)) was 100 % of control, the T/C (dose: 40.0 mg/kg/injection, schedule: Q01DX005 (ip), vehicle: Klucel (hydroxypropylcellulose) (HPC)) was 99 % of control and 109 % of control and the T/C (dose: 60.0 mg/kg/injection, schedule: Q01DX005 (ip), vehicle: Klucel (hydroxypropylcellulose) (HPC)) was 100 % of control and 116 % of control. For the same molecule, the T/C (dose: 120.0 mg/kg/injection, schedule: Q01DX005 (ip), vehicle: Klucel (hydroxypropylcellulose) (HPC)) was 93 % of control and 95 % of control and the T/C (dose: 240.0 mg/kg/injection, schedule: Q01DX005 (ip), vehicle: Klucel (hydroxypropylcellulose) (HPC)) was 92 % of control.

In the case of `O=C1CSCN1N1CSCC1=O`, the T/C [8] is reported as 101 % of control, the T/C [9] is reported as 102 % of control and the T/C [10] is reported as 98 % of control.

`Cc1cc(N/N=C/c2ccccn2)nc2c(C)cccc12` was tested, and the T/C [8] was 90 % of control, the T/C [9] was 91 % of control and the T/C [10] was 100 % of control.

With `COc1ccc2c(c1OC)C(=O)OC2C(=O)NCCc1ccc2c(c1)OCO2` (configuration not stated) the T/C (dose: 50.0 mg/kg/injection, schedule: Q01DX005 (ip), vehicle: Klucel (hydroxypropylcellulose) (HPC)) was 92 % of control, the T/C (dose: 100.0 mg/kg/injection, schedule: Q01DX005 (ip), vehicle: Klucel (hydroxypropylcellulose) (HPC)) was 92 % of control and the T/C (dose: 200.0 mg/kg/injection, schedule: Q01DX005 (ip), vehicle: Klucel (hydroxypropylcellulose) (HPC)) was 93 % of control.

For `CCn1c2ccc(N(C)C)cc2c2cc(N(C)C)ccc21`, the T/C [11] was 99 % of control, the T/C [12] was 105 % of control and the T/C [13] was 102 % of control.

In the case of `CCc1nc(N)nc(N)c1-c1ccc([N+](=O)[O-])cc1`, the T/C [8] is reported as 108 % of control and the T/C [9] is reported as 108 % of control.

With `CN1N=Nc2ccccc2C1(O)c1ccc(F)cc1` (configuration not stated) the T/C [8] was 104 % of control, the T/C [9] was 104 % of control and the T/C [10] was 107 % of control.

With `CN(C)c1nc2ccccn2c1C(=O)c1ccccc1` the T/C (dose: 100.0 mg/kg/injection, schedule: Q04DX003 (ip), vehicle: Klucel (hydroxypropylcellulose) (HPC)) was 103 % of control, the T/C (dose: 200.0 mg/kg/injection, schedule: Q04DX003 (ip), vehicle: Klucel (hydroxypropylcellulose) (HPC)) was 100 % of control and the T/C (dose: 400.0 mg/kg/injection, schedule: Q04DX003 (ip), vehicle: Klucel (hydroxypropylcellulose) (HPC)) was 103 % of control.

`C[n+]1c2ccccc2cc2[nH]c3ccccc3c21` was tested, and the T/C (dose: 6.25 mg/kg/injection, schedule: Q01DX005 (ip), vehicle: Klucel + Tween-80) was 105 % of control.

For `CC/C(=N\NC(=S)SC)c1ccccn1`, the T/C (dose: 6.25 mg/kg/injection, schedule: Q01DX005 (ip), vehicle: saline with Tween-80) was 106 % of control, the T/C (dose: 12.5 mg/kg/injection, schedule: Q01DX005 (ip), vehicle: saline with Tween-80) was 94 % of control and 96 % of control and 97 % of control and the T/C (dose: 25.0 mg/kg/injection, schedule: Q01DX005 (ip), vehicle: saline with Tween-80) was 105 % of control and 110 % of control and 94 % of control.

In the case of `Nc1nnc(Cc2ccc(Cl)cc2)o1`, the T/C [11] is reported as 95 % of control, the T/C [12] is reported as 105 % of control and the T/C [13] is reported as 105 % of control.

With `C(#Cc1ccncc1)c1ccncc1` the T/C [8] was 100 % of control and the T/C [9] was 98 % of control.

With `CCn1c2ccc([N+](=O)[O-])cc2c2c([N+](=O)[O-])c(NC=O)ccc21` the T/C [8] was 90 % of control, the T/C [9] was 95 % of control and the T/C [10] was 86 % of control.

For `CCCC(=O)OCC1OC(n2cnc3c(=S)nc(N)[nH]c32)C(OC(=O)CCC)C1OC(=O)CCC` (configuration not stated), the T/C (dose: 1.25 mg/kg/injection, schedule: Q04DX003 (ip), vehicle: saline with Tween-80) was 100 % of control, the T/C (dose: 2.5 mg/kg/injection, schedule: Q04DX003 (ip), vehicle: saline with Tween-80) was 104 % of control and the T/C (dose: 5.0 mg/kg/injection, schedule: Q04DX003 (ip), vehicle: saline with Tween-80) was 113 % of control. The T/C (dose: 10.0 mg/kg/injection, schedule: Q04DX003 (ip), vehicle: saline with Tween-80) was 155 % of control, the T/C (dose: 20.0 mg/kg/injection, schedule: Q04DX003 (ip), vehicle: saline with Tween-80) was 165 % of control and the T/C (dose: 25.0 mg/kg/injection, schedule: Q01DX009 (ip), vehicle: saline with Tween-80) was 122 % of control. The T/C [2] was 150 % of control, the T/C (dose: 50.0 mg/kg/injection, schedule: Q01DX009 (ip), vehicle: saline with Tween-80) was 90 % of control and the T/C [3] was 116 % of control. The T/C [1] was 118 % of control.

With `CCN(CC)CCCC(C)NCC(O)c1cc(-c2ccc(Cl)cc2)nc2ccccc12` (configuration not stated) the T/C [8] was 107 % of control and the T/C [9] was 112 % of control.

With `CC(=O)[C@H]1CC[C@H]2[C@@H]3CCC4=CC(=O)[C@H](C)C[C@]4(C)[C@H]3C(=O)C[C@]12C` the T/C [6] was 100 % of control, the T/C [1] was 95 % of control and the T/C [7] was 95 % of control.
